Here are results for 35 compounds from US20230115350A1 (Cedilla Therapeutics, Inc., priority 2021, published 2023).

A value given as a limit tells only on which side of the number the result lay.

Chain of TEAD1 protein (YAP Binding Domain) (P28347 209-426 limits assumed): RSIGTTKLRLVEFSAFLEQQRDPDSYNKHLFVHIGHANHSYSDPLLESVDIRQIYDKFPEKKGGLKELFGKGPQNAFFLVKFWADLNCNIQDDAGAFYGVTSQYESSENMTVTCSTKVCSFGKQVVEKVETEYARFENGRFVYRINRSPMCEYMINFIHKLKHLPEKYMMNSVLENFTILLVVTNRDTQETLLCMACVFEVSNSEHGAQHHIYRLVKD

The experiment addresses TEAD1 protein (YAP Binding Domain) (Homo sapiens, UniProt P28347). Put plainly: TEAD1 lipid pocket compound displacement assay (TR-FRET, Cy5-probe). To be noted: 60 minutes incubation at room temperature; TR-FRET 665 nm/620 nm; read-out: CDA IC50. As for the experimental part:
Compound Displacement Assay.
A TEAD1 lipid pocket displacement assay was carried out according to the following protocol. Purified His-tagged TEAD1 protein (YAP Binding Domain) was pre-mixed with a Cy5-probe (Cy5-conjugated to a small molecule that binds in the TEAD1 lipid pocket) and Terbium-labeled anti-His antibody (Cisbio Cat 61HI2TLB). The binding of the Cy5-probe to anti-His-Tb/His-tag TEAD1 complex yielded a TR-FRET signal. […] After 60 minutes incubation at room temperature of compounds with the His-TEAD1/anti-His-Tb/Cy5-probe complex, the plate was read on a plate reader (BMG ClarioStar Cat 430-1300) using TR-FRET mode with wavelengths of 665 nm/620 nm. The potency of compounds as TEAD1 lipid pocket binders was determined by IC50 value generated using a non-linear 4 parameter curve fit.
In the case of `C=CC(=O)Nc1ccc(OCc2cccc(F)c2)c(C2CC2)c1` [Compound 2, N-(3-cyclopropyl-4-((3-fluorobenzyl)oxy)phenyl)acrylamide], the IC50 fell in the range of 250 to 500 nM.

`C=CC(=O)Nc1ccc(OCc2cccc(F)c2)cc1C1CC1` [Compound 4, N-(2-cyclopropyl-4-((3-fluorobenzyl)oxy)phenyl)acrylamide]: the half-inhibitory concentration (IC50) lay in the range of 250 to 500 nM.

In the case of `C=CC(=O)Nc1ccc2c(c1)CCC(c1cccc(F)c1)O2` (centres unmarked) [Compound 5, N-(2-(3-fluorophenyl)chroman-6-yl)acrylamide], the half-maximal inhibitory concentration (IC50) was above 2000 nM.

For the compound `C=CC(=O)Nc1ccc(OCc2cccc(F)c2)c(OC)c1` [Compound 6, N-(4-((3-fluorobenzyl)oxy)-3-methoxyphenyl)acrylamide], the concentration for half-maximal inhibition (IC50) lay within 250 to 500 nM.

Regarding `C=CC(=O)Nc1ccc(OCc2cccc(F)c2)cc1OC` [Compound 7, N-(4-((3-fluorobenzyl)oxy)-2-methoxyphenyl)acrylamide], the IC50 is at most 250 nM.

Take `C=CC(=O)Nc1ccc2c(c1)OCC(c1cccc(F)c1)O2` (centres unmarked) [Compound 8, N-(2-(3-fluorophenyl)-2,3-dihydrobenzo[b][1,4]dioxin-6-yl)acrylamide]: the IC50 fell in the range of 250 to 500 nM.

As for `C=CC(=O)Nc1ccc2c(c1)NCC(c1cccc(F)c1)O2` (centres unmarked) [Compound 10, N-(2-(3-fluorophenyl)-3,4-dihydro-2H-benzo[b][1,4]oxazin-6-yl)acrylamide], the half-maximal inhibitory concentration (IC50) was above 2000 nM.

Regarding `C=CC(=O)Nc1ccc(OCc2cccc(F)c2)cc1CC(N)=O` [Compound 11, N-(2-(2-amino-2-oxoethyl)-4-((3-fluorobenzyl)oxy)phenyl)acrylamide], the IC50 is above 2000 nM.

Regarding `C=CC(=O)Nc1ccc2c(c1)N(C)CC(c1cccc(F)c1)O2` (centres unmarked) [Compound 12, N-(2-(3-fluorophenyl)-4-methyl-3,4-dihydro-2H-benzo[b][1,4]oxazin-6-yl)acrylamide], the 50% inhibitory concentration (IC50) is above 2000 nM.

On to `C=CC(=O)Nc1ccc(OCc2cccc(F)c2)cc1Cc1ccncc1` [Compound 13, N-(4-((3-fluorobenzyl)oxy)-2-(pyridin-4-ylmethyl)phenyl)acrylamide], for which the IC50 was above 2000 nM.

Take `C=CC(=O)Nc1ccc(OCc2cccc(F)c2)c2c1CCCO2` [Compound 14, N-(8-((3-fluorobenzyl)oxy)chroman-5-yl)acrylamide]: the IC50 was above 2000 nM.

As for `C=CC(=O)Nc1ccc(OCc2cccc(F)c2)c2c1CCCC2` [Compound 15, N-(4-((3-fluorobenzyl)oxy)-5,6,7,8-tetrahydronaphthalen-1-yl)acrylamide], the half-inhibitory concentration (IC50) is 250 to 500 nM.

As to `C=CC(=O)Nc1ccc(OCc2cccc(F)c2)cc1CC1CC1` [Compound 16, N-(2-(cyclopropylmethyl)-4-((3-fluorobenzyl)oxy)phenyl)acrylamide], the IC50 is above 2000 nM.

Consider `C=CC(=O)Nc1ccc(N(Cc2cccc(F)c2)CC2CC2)c(F)c1` [Compound 17, N-(4-((cyclopropylmethyl)(3-fluorobenzyl)amino)-3-fluorophenyl)acrylamide], for which the concentration for half-maximal inhibition (IC50) was at most 250 nM.

As for `C=CC(=O)Nc1ccc(N(Cc2ccncc2)Cc2cccc(F)c2)c(F)c1` [Compound 18, N-(3-fluoro-4-((3-fluorobenzyl)(pyridin-4-ylmethyl)amino)phenyl)acrylamide], the 50% inhibitory concentration (IC50) was above 2000 nM.

For the compound `C#Cc1cccc(COc2ccc(NC(=O)C=C)cc2F)c1` [Compound 25, N-(4-((3-ethynylbenzyl)oxy)-3-fluorophenyl)acrylamide], the 50% inhibitory concentration (IC50) is 250 to 500 nM.

On to `Fc1cc(-c2nnn[nH]2)ccc1OCC1CCC(F)(F)CC1` [Compound 29, 5-(4-((4,4-difluorocyclohexyl)methoxy)-3-fluorophenyl)-1H-tetrazole], for which the IC50 was 500 to 2000 nM.

With `C=CC(=O)Nc1ccc(OC(C)C2CCC(F)(F)CC2)c(F)c1` (centres unmarked) [Compound 30, N-(4-(1-(4,4-difluorocyclohexyl)ethoxy)-3-fluorophenyl)acrylamide], the 50% inhibitory concentration (IC50) lay within 250 to 500 nM.

With `C=CC(=O)Nc1ccc(NC(=O)C2CCC(F)(F)CC2)c(F)c1` [Compound 32, N-(4-acrylamido-2-fluorophenyl)-4,4-difluorocyclohexanecarboxamide], the concentration for half-maximal inhibition (IC50) is at most 250 nM.

On to `CS(=O)(=O)Nc1ccc(OCC2CCC(F)(F)CC2)c(F)c1` [Compound 33, N-(4-((4,4-difluorocyclohexyl)methoxy)-3-fluorophenyl)methane sulfonamide], for which the concentration for half-maximal inhibition (IC50) was in the range of 500 to 2000 nM.

In the case of `C=CS(=O)(=O)Nc1ccc(OCC2CCC(F)(F)CC2)c(F)c1` [Compound 34, N-(4-((4,4-difluorocyclohexyl)methoxy)-3-fluorophenyl) ethene sulfonamide], the 50% inhibitory concentration (IC50) is at most 250 nM.

`O=C(O)c1ccc(OCC2CCC(F)(F)CC2)c(F)c1` [Compound 35, 4-((4,4-difluorocyclohexyl)methoxy)-3-fluorobenzoic acid]: the IC50 fell in the range of 250 to 500 nM.

`O=C(O)c1ccc(F)c(OCC2CCC(F)(F)CC2)c1` [Compound 36, 3-((4,4-difluorocyclohexyl)methoxy)-4-fluorobenzoic acid]: the 50% inhibitory concentration (IC50) fell in the range of 250 to 500 nM.

In the case of `O=C(NS(=O)(=O)C1CC1)c1ccc(OCC2CCC(F)(F)CC2)c(F)c1` [Compound 37, N-(cyclopropylsulfonyl)-4-((4,4-difluorocyclohexyl)methoxy)-3-fluorobenzamide], the IC50 lay within 500 to 2000 nM.

Consider `C=CC(=O)Nc1ccc(OCc2cccc(F)c2)cc1` [Compound 44, N-(4-((3-fluorobenzyl)oxy)phenyl)acrylamide], for which the IC50 was above 2000 nM.

As to `C=CC(=O)Nc1ccc(OCc2cccc(F)c2)c(Cl)c1` [Compound 46, N-(3-chloro-4-((3-fluorobenzyl)oxy)phenyl)acrylamide], the IC50 is at most 250 nM.

On to `C=CC(=O)Nc1ccc(OCc2cccc(F)c2)cc1C` [Compound 47, N-(4-((3-fluorobenzyl)oxy)-2-methylphenyl)acrylamide], for which the IC50 was in the range of 500 to 2000 nM.

In the case of `C=CC(=O)Nc1ccc(OCC2CCC(F)(F)CC2)c(C)c1` [Compound 48, N-(4-((4,4-difluorocyclohexyl)methoxy)-3-methylphenyl)acrylamide], the 50% inhibitory concentration (IC50) is at most 250 nM.

With `C=CC(=O)Nc1ccc(OCc2ccccc2)c(F)c1` [Compound 52, N-(4-(benzyloxy)-3-fluorophenyl)acrylamide], the concentration for half-maximal inhibition (IC50) lay within 250 to 500 nM.

Turning to `C=CC(=O)Nc1ccc(OCc2cccnc2)c(F)c1` [Compound 56, N-(3-fluoro-4-(pyridin-3-ylmethoxy)phenyl)acrylamide], the IC50 is above 2000 nM.

With `C=CC(=O)Nc1ccc(OCc2cnccc2Cl)c(F)c1` [Compound 57, N-(4-((4-chloropyridin-3-yl)methoxy)-3-fluorophenyl)acrylamide], the IC50 was above 2000 nM.

Take `C=CC(=O)Nc1ccc(OCc2ccsc2Cl)c(F)c1` [Compound 61, N-(4-((2-chlorothiophen-3-yl)methoxy)-3-fluorophenyl)acrylamide]: the 50% inhibitory concentration (IC50) lay within 500 to 2000 nM.

Take `C=CC(=O)Nc1ccc(OCc2ccc(C(=O)OC)s2)c(F)c1` [Compound 62, methyl 5-((4-acrylamido-2-fluorophenoxy)methyl)thiophene-2-carboxylate]: the IC50 lay within 500 to 2000 nM.

For `C=CC(=O)Nc1ccc(OCc2cnc(C)s2)c(F)c1` [Compound 64, N-(3-fluoro-4-((2-methylthiazol-5-yl)methoxy)phenyl)acrylamide], the half-inhibitory concentration (IC50) is above 2000 nM.

As for `C=CC(=O)Nc1ccc(OCc2oc(=O)oc2C)c(F)c1` [Compound 65, N-(3-fluoro-4-((5-methyl-2-oxo-1,3-dioxol-4-yl)methoxy)phenyl)acrylamide], the IC50 is above 2000 nM.
